Patent publication US7635706B2, “5HT4-antagonistic 4-(aminomethyl)-piperidine benzamides” (Janssen Pharmaceutica NV, priority 2003, dated 2009)

Target: T1, h5-HT4b (Homo sapiens, UniProt Q13639)
T1 construct: expressed in transfected cells; host or cells: HEK 293 (clone 9), membrane preparation
Assay: 5HT4 antagonism: [3H]GR113808 binding to membranes of h5-HT4b-HEK 293 clone 9 cells
Conditions: [3H]GR113808 0.1 nM, h5-HT4b-HEK 293 membranes, 30 min at 25° C.
Procedure: h5-HT4b-HEK 293 clone 9 cells were cultured in 150 mm Petri dishes and washed twice with cold PBS. The cells were then scraped from the plates and suspended in 50 mM Tris-HCl buffer, pH 7.4 and harvested by centrifugation at 23,500 rpm for 10 minutes. The pellet was resuspended in 5 mM Tris-HCl, pH 7.4 and homogenized with an Ultra Turrax homogenizer. The membranes were collected by centrifugation at 30,000 rpm for 20 min, resuspended in 50 mM Tris-HCl pH 7.4 and stored at −80° C. For the experiment, assay mixtures (0.5 ml) contained 50 μl of the tritiated ligand (5-HT4 antagonist [^3H]GR113808 0.1 nM) and 0.4 ml membrane preparation (15 μg protein/ml). 50 μl of 10% DMSO was added for total binding. 50 μl of 1 μM of (+)-trans-(1-butyl-3-hydroxy4-piperidinyl)methyl 8-amino-7-chloro-2,3-dihydro-1,4-benzodioxin-5-carboxylate (a proprietary 5HT4 agonist of Janssen Pharmaceutica) was added for determination of non-specific binding.
The [^3H]GR113808 assay buffer was 50 mM HEPES-NaOH, pH 7.4. The mixtures were incubated for 30 min at 25° C. The incubation was terminated by filtration over a Unifilter 96 GF/B presoaked in 0.1% polyethylenimine, followed by six washing steps with 50 mM HEPES-NaOH, pH 7.4.

T1 sequence (Q13639 whole entry): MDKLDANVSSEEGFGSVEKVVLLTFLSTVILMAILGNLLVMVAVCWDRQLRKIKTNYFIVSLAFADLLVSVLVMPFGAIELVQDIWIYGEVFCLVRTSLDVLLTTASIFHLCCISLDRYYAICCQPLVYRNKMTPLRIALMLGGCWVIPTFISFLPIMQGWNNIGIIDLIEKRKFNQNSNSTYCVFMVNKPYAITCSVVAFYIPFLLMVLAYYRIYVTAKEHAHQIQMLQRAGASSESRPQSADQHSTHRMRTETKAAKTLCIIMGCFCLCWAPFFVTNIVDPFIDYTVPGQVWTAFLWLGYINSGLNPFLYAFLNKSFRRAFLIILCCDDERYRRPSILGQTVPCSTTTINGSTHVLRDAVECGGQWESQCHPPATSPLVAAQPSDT

IC50 [nM]	SMILES
21.9	COCCCN1CC[C@@H](CNC(=O)c2cc(Cl)c(OC)c3c2OCCO3)[C@H](OC)C1 [compound 76]
8.91	CCCCN1CC[C@@H](CNC(=O)c2cc(Cl)c(OC)c3c2OCCO3)[C@H](OC)C1 [compound 77]
174	CNCCCN1CC[C@@H](CNC(=O)c2cc(Cl)c(OC)c3c2OCCO3)[C@H](OC)C1 [compound 78]
229	COc1c(Cl)cc(C(=O)NC[C@@H]2CCN(CCn3ccn(C(C)C)c3=O)C[C@H]2OC)c2c1OCCCO2 [compound 79]
6.31	CNCCCN1CC[C@@H](CNC(=O)c2cc(Cl)c(Br)c3c2OCCCO3)[C@H](O)C1 [compound 80]
2.09	CCCCN1CC[C@@H](CNC(=O)c2cc(Cl)c(Cl)c3c2OCCCO3)[C@H](OC)C1 [compound 81]
8.32	CO[C@@H]1CN(CCn2ccn(C(C)C)c2=O)CC[C@H]1CNC(=O)c1cc(Cl)c(Cl)c2c1OCCCO2 [compound 82]
64.6	CNCCN1CC[C@@H](CNC(=O)c2cc(Cl)c(OC)c3c2OCCO3)[C@H](O)C1 [compound 83]
5.25	CNCCN1CC[C@@H](CNC(=O)c2cc(Cl)c(Cl)c3c2OCCCO3)[C@H](OC)C1 [compound 84]
2.69	CNCCCN1CC[C@@H](CNC(=O)c2cc(Cl)c(Cl)c3c2OCCCO3)[C@H](O)C1 [compound 85]
0.912	CNCCCCN1CC[C@@H](CNC(=O)c2cc(Cl)c(Cl)c3c2OCCCO3)[C@H](OC)C1 [compound 86]
30.9	COc1c(Cl)cc(C(=O)NC[C@@H]2CCN(CCC3OCCO3)C[C@H]2OC)c2c1OCCO2 [compound 87]
2.24	O=C(NC[C@@H]1CCN(CCC2OCCO2)C[C@H]1O)c1cc(Cl)c(Cl)c2c1OCCCO2 [compound 88]
2.09	N#CCCCN1CC[C@@H](CNC(=O)c2cc(Cl)c(Cl)c3c2OCCCO3)[C@H](O)C1 [compound 89]
2.04	CNCCCCN1CC[C@@H](CNC(=O)c2cc(Cl)c(Cl)c3c2OCCCO3)[C@H](O)C1 [compound 90]
13.5	CC(C)n1ccn(CCN2CC[C@@H](CNC(=O)c3cc(Cl)c(Br)c4c3OCCCO4)[C@H](O)C2)c1=O [compound 91]

IC50 [nM]	SMILES
490	CNCCN1CC[C@@H](CNC(=O)c2cc(Cl)c(OC)c3c2OCCO3)[C@H](OC)C1 [compound 92]
1.86	Cc1ccc(C(=O)NC[C@@H]2CCN(CCCC#N)C[C@H]2O)c2c1OCCCO2 [compound 94]
1.02	Cc1ccc(C(=O)NC[C@@H]2CCN(CC3CCCO3)C[C@H]2O)c2c1OCCCO2 (stereo partly shown) [compound 95]
0.977	Cc1ccc(C(=O)NC[C@@H]2CCN(CCCNS(C)(=O)=O)C[C@H]2O)c2c1OCCCO2 [compound 96]
56.2	COc1ccc(C(=O)NC[C@@H]2CCNC[C@H]2O)c2c1OCCCO2 [compound 97]
2.63	COCCCN1CC[C@@H](CNC(=O)c2ccc(OC)c3c2OCCCO3)[C@H](O)C1 [compound 98]
7.24	COc1ccc(C(=O)NC[C@@H]2CCN(CCCO)C[C@H]2O)c2c1OCCCO2 [compound 99]
0.331	CCCCN1CC[C@@H](CNC(=O)c2ccc(OC)c3c2OCCCO3)[C@H](O)C1 [compound 100]
2.45	COc1ccc(C(=O)NC[C@@H]2CCN(CCC3OCCO3)C[C@H]2O)c2c1OCCCO2 [compound 101]
6.46	CNCCCCN1CC[C@@H](CNC(=O)c2ccc(OC)c3c2OCCCO3)[C@H](O)C1 [compound 102]
8.71	COc1ccc(C(=O)NC[C@@H]2CCN(CC3CCCO3)C[C@H]2O)c2c1OCCCO2 (stereo partly shown) [compound 103]
28.2	Cc1ccc(C(=O)NC[C@@H]2CCNC[C@H]2O)c2c1OCCCO2 [compound 104]
0.603	Cc1ccc(C(=O)NC[C@@H]2CCN(CCCOc3ccc(S(N)(=O)=O)cc3)C[C@H]2O)c2c1OCCCO2 [compound 105]
0.813	Cc1ccc(C(=O)NC[C@@H]2CCN(CCCCOc3ccc(S(N)(=O)=O)cc3)C[C@H]2O)c2c1OCCCO2 [compound 106]
1.78	Cc1ccc(C(=O)NC[C@@H]2CCN(CCOc3ccc(S(N)(=O)=O)cc3)C[C@H]2O)c2c1OCCCO2 [compound 108]
